Results from patent US6465522B1, “Anthraquinone anticancer drugs” (priority 1998, dated 2002).
Where two headings read alike, the source gives them in different places.

Key:
Format in all cases: cell-based
2780CP = assay: MTT growth inhibition, 2780CP cisplatin resistant ovarian cancer cell line
Protocol: (§1) The cells used for the anticancer activity measurements were the parental ovarian cell line designated as A2780, the doxorubicin-resistant variant designated as 2780AD, and the cisplatin-resistant variant designated as 2780CP (also known as CP70). Drug sensitivity in these cell lines was measured by the standard MTT assay (Carmichael et al., 1987, Cancer Research, 47: 936) with a 24 hour drug exposure time. The values obtained are mean values of triplicate measurements.

A2780 = assay: MTT growth inhibition, A2780 parental ovarian cancer cell line; conditions: MTT assay, 24 hour drug exposure, mean of triplicate, read-out: Growth Inhibition of Ovarian Cancer Cell Lines (IC50/nM) A2780
Protocol: as §1

2780AD = assay: MTT growth inhibition, 2780AD adriamycin (doxorubicin) resistant ovarian cancer cell line
Protocol: as §1

SKOV-3 = assay: Antitumour activity in drug resistant ovarian cancer cell line SKOV-3; conditions: SKOV-3 drug resistant ovarian cancer cell line
CH1cisR = assay: Antitumour activity in drug resistant ovarian cancer cell line CH1cisR
[1] = 2780CP cisplatin resistant variant, MTT assay, 24 hour drug exposure, mean of triplicate, read-out: Growth Inhibition of Ovarian Cancer Cell Lines (IC50/nM) 2780CP
[2] = 2780AD adriamycin resistant variant, MTT assay, 24 hour drug exposure, mean of triplicate, read-out: Growth Inhibition of Ovarian Cancer Cell Lines (IC50/nM) 2780AD

In the case of COc1cccc2c1C(=O)c1c(O)c3c(c(O)c1C2=O)C[C@@](O)(C(=O)CO)C[C@@H]3O[C@H]1C[C@H](N)[C@H](O)[C@H](C)O1 [Adriamycin, adriamycin], the IC50 (2780CP; [1]) is reported as 13.3 ± 0.9 nM, the IC50 (A2780; Homo sapiens) is reported as 5 ± 1.1 nM and the IC50 (2780AD; [2]) is reported as 4860 ± 510 nM.

For N.N.[Cl][Pt][Cl] [Cisplatin, cisplatin], the IC50 (2780CP; [1]) was 2620 ± 730 nM, the IC50 (A2780) was 340 ± 60 nM and the IC50 (2780AD; [2]) was 3020 ± 220 nM.

CN(C)CCNc1ccc(NCCN(CCCl)CCCl)c2c1C(=O)c1c(O)ccc(O)c1C2=O [Compound (2)] showed an IC50 (2780CP; [1]) of 11.8 ± 1.4 nM, an IC50 (2780CP; 2780CP, read-out: IC50 2780CP) of 12 nM and an IC50 (SKOV-3) of 490 nM. It also gave an IC50 (A2780) of 4 ± 0.6 nM, an IC50 (2780AD; 2780AD, read-out: IC50 2780AD) of 16 nM and an IC50 (CH1cisR) of 19 nM.
